{"source": "patent US20090208434A1", "about": "“3-(4-hydroxy-3-methoxyphenyl)-1-(4-hydroxyphenyl)-1-propanone and its use in cosmetic and pharmaceutical preparations” (SYMRISE GmbH & Co. KG, priority 2008, published 2009)", "key": {"[1]": {"assay": "Investigations of the chemical characteristics (stability)", "format": "physicochemical", "source_text": "Furthermore, once the inventive compound of formula 1 had been incorporated into inventive cosmetic and pharmaceutical preparations no discoloration of this preparation was detected."}, "IL-1": {"tested_on": "IL-1", "assay": "Inhibition of upregulation of inflammatory mediators: IL-1", "conditions": "according to the dose and even at low concentrations", "source_text": "(§1) It can therefore be used as an outstanding alternative or as an addition to other already well-known anti-inflammatory compounds (active substances) in cosmetic and pharmaceutical preparations or similar as an anti-inflammatory active substance."}, "IL-6": {"tested_on": "IL-6", "assay": "Inhibition of upregulation of inflammatory mediators: IL-6", "conditions": "according to the dose and even at low concentrations", "source_text": "as §1"}, "[2]": {"tested_on": "TNF-alpha (tumor necrosis factor alpha)", "assay": "Inhibition of upregulation of inflammatory mediators: TNF-alpha", "conditions": "according to the dose and even at low concentrations", "source_text": "as §1"}, "PGE-2 (prostaglandin E2)": {"tested_on": "PGE-2 (prostaglandin E2)", "assay": "Inhibition of upregulation of inflammatory mediators: PGE-2", "conditions": "according to the dose and even at low concentrations", "source_text": "as §1"}, "[3]": {"assay": "Sensitization and irritation test of the compound itself", "conditions": "test concentration of 50% by weight", "source_text": "The inventive compound of formula 1 with an anti-inflammatory effect can also be used as a component of inventive scent compositions (odorous substance compositions) and for example to give a perfumed finished product an anti-inflammatory effect. Since the proportion of perfume in a cosmetic finished product is often around 1% by weight, a scent containing the inventive compound of formula 1, will preferably include or be comprised approximately 1-50% by weight of the compound of formula 1."}}}
{"smiles": "COc1cc(CCC(=O)c2ccc(O)cc2)ccc1O", "note": "[compound of formula 1, 3-(4-hydroxy-3-methoxyphenyl)-1-(4-hydroxyphenyl)-1-propanone]", "values": [{"measurement": "photostability", "setting": "[1]", "result": "high photostability"}, {"measurement": "temperature stability", "setting": "[1]", "result": "high temperature stability"}, {"measurement": "stability in a broad pH range", "setting": "[1]; broad pH range", "result": "high stability in a broad pH range"}, {"measurement": "upregulation of IL-1 caused by extrinsic and intrinsic factors", "setting": "IL-1", "result": "inhibiting the upregulation"}, {"measurement": "upregulation of IL-6 caused by extrinsic and intrinsic factors", "setting": "IL-6", "result": "inhibiting the upregulation"}, {"measurement": "upregulation of TNF-alpha caused by extrinsic and intrinsic factors", "setting": "[2]", "result": "inhibiting the upregulation"}, {"measurement": "upregulation of PGE-2 caused by extrinsic and intrinsic factors", "setting": "PGE-2 (prostaglandin E2)", "result": "inhibiting the upregulation"}, {"measurement": "irritation", "setting": "[3]", "result": "did not cause irritation"}, {"measurement": "sensitization", "setting": "[3]", "result": "not sensitizing"}]}
